Active and inactive are the calls of the source.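 How the source made its calls: active means EC50 at or below 30 µM together with a response span of at least a set limit; inactive means the rest.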
Target: GTPase HRas (Homo sapiens) (UniProt P01112)
Test: activated Ras mutant GTP-binding inhibitors, SAR follow-up, biochemical, pyrazoline analogs, multiplex bead flow cytometry (AID 2050)
Conditions: GST-Ras beads, Bodipy-FL-GTP binding

Sequence of GTPase HRas (Homo sapiens) (P01112 whole entry, looked up): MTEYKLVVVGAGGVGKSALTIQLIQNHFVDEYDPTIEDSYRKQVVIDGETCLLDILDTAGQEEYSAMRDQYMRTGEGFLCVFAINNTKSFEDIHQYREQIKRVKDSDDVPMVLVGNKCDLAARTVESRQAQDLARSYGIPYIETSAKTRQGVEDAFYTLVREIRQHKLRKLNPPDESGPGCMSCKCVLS

- EC50: > 30 µM (inactive)
SMILES: FC(F)(F)c1ccccc1C1CC(c2ccc(Br)cc2)=NN1c1ccccc1 (stereo unspecified)

— PubChem BioAssay AID2050 (NMMLSC, 2009)
